Measurements reported in ChEMBL document CHEMBL1201861, “Genomics of Drug Sensitity in Cancer screening data, Wellcome Trust Sanger Institute”.

Key:
Assay in all cases: cells
REH = format: functional, cell-based, Homo sapiens; conditions: Homo sapiens, REH;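 note: growth inhibition of REH cells determined with a cell viability read-out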
Description: SANGER: Inhibition of human REH cell growth in a cell viability assay.

LB647-SCLC = format: functional, cell-based, Homo sapiens; conditions: Homo sapiens, LB647-SCLC;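 note: cell growth inhibition, read out by a viability assay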
Description: SANGER: Inhibition of human LB647-SCLC cell growth in a cell viability assay.

NCI-H510A = format: functional, cell-based, Homo sapiens; conditions: Homo sapiens, NCI-H510A;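 note: growth inhibition of NCI-H510A cells, read out with a cell viability assay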
Description: SANGER: Inhibition of human NCI-H510A cell growth in a cell viability assay.

EW-22 = format: functional, cell-based; conditions: Homo sapiens;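 note: growth inhibition of the EW-22 cell line, measured with a cell viability readout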
Description: SANGER: Inhibition of human EW-22 cell growth in a cell viability assay.

SIMA = format: functional, cell-based, Homo sapiens; conditions: Homo sapiens, SIMA;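 note: growth inhibition of SIMA cells, measured with a cell viability readout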
Description: SANGER: Inhibition of human SIMA cell growth in a cell viability assay.

Daudi = format: functional, cell-based, Homo sapiens; conditions: Homo sapiens, Daudi;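 note: growth inhibition of Daudi cells, read out by a viability assay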
Description: SANGER: Inhibition of human Daudi cell growth in a cell viability assay.

CA46 = format: functional, cell-based, Homo sapiens; conditions: Homo sapiens, CA46;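 note: growth inhibition of human CA46 cells, read out by a cell viability assay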
Description: SANGER: Inhibition of human CA46 cell growth in a cell viability assay.

TE-441-T = format: functional, cell-based, Homo sapiens; conditions: Homo sapiens, TE-441-T
Description: SANGER: Inhibition of human TE-441-T cell growth in a cell viability assay.

SIG-M5 = format: functional, cell-based, Homo sapiens; conditions: Homo sapiens, SIG-M5;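 note: cell viability assay read-out, measuring how strongly growth of cultured human SIG-M5 cells is inhibited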
Description: SANGER: Inhibition of human SIG-M5 cell growth in a cell viability assay.

BC-3 = format: functional, cell-based, Homo sapiens; conditions: Homo sapiens, BC-3;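 note: cell viability assay measuring growth inhibition of human BC-3 cells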
Description: SANGER: Inhibition of human BC-3 cell growth in a cell viability assay.

SCC-3 = format: functional, cell-based, Homo sapiens; conditions: Homo sapiens, SCC-3;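 note: cell viability assay measuring inhibition of SCC-3 cell growth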
Description: SANGER: Inhibition of human SCC-3 cell growth in a cell viability assay.

CAL-148 = format: functional, cell-based, Homo sapiens; conditions: Homo sapiens, CAL-148
Description: SANGER: Inhibition of human CAL-148 cell growth in a cell viability assay.

NB17 = format: functional, cell-based, Homo sapiens; conditions: Homo sapiens, NB17;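 note: growth inhibition of NB17 cells, read out with a cell viability assay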
Description: SANGER: Inhibition of human NB17 cell growth in a cell viability assay.

NCI-H1882 = format: functional, cell-based, Homo sapiens; conditions: Homo sapiens, NCI-H1882;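 note: growth inhibition of the cell line, determined with a viability assay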
Description: SANGER: Inhibition of human NCI-H1882 cell growth in a cell viability assay.

LU-165 = format: functional, cell-based, Homo sapiens; conditions: Homo sapiens, LU-165
Description: SANGER: Inhibition of human LU-165 cell growth in a cell viability assay.

GDM-1 = format: functional, cell-based, Homo sapiens; conditions: Homo sapiens, GDM-1;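 note: cell viability readout used to measure growth inhibition of human GDM-1 cells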
Description: SANGER: Inhibition of human GDM-1 cell growth in a cell viability assay.

MRK-nu-1 = format: functional, cell-based, Homo sapiens; conditions: Homo sapiens, MRK-nu-1;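 note: cell viability assay measuring growth suppression of human MRK-nu-1 cells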
Description: SANGER: Inhibition of human MRK-nu-1 cell growth in a cell viability assay.

D-542MG = format: functional, cell-based; conditions: Homo sapiens
Description: SANGER: Inhibition of human D-542MG cell growth in a cell viability assay.

Row | SMILES | IC50 (REH) [nM] | IC50 (LB647-SCLC) [nM] | IC50 (NCI-H510A) [nM] | IC50 (EW-22) [nM] | IC50 (SIMA) [nM] | IC50 (Daudi) [nM] | IC50 (CA46) [nM] | IC50 (TE-441-T) [nM] | IC50 (SIG-M5) [nM] | IC50 (BC-3) [nM] | IC50 (SCC-3) [nM] | IC50 (CAL-148) [nM] | IC50 (NB17) [nM] | IC50 (NCI-H1882) [nM] | IC50 (LU-165) [nM] | IC50 (GDM-1; read-out: IC50) [nM] | IC50 (MRK-nu-1) [nM] | IC50 (D-542MG) [nM] | IC50 (GDM-1) [nM]
1 | COc1cc(N2CCC(N3CCN(C)CC3)CC2)ccc1Nc1ncc(Cl)c(Nc2ccccc2S(=O)(=O)C(C)C)n1 [TAE-684] | > 2000 | 1350 | > 2000 | > 2000 | > 2000 | 1790 | > 2000 | > 2000 | 292 | > 2000 | < 7.81 | > 2000 | 1010 | 1240 | > 2000 | 471 | > 2000 | – | –
2 | NC(=O)c1cccc(-c2cc(Nc3ccc(OC(F)(F)F)cc3)ncn2)c1 | > 1280 | > 1280 | > 1280 | – | > 1280 | > 1280 | > 1280 | > 1280 | > 1280 | > 1280 | > 1280 | > 1280 | > 1280 | > 1280 | > 1280 | > 1280 | > 1280 | – | –
3 | Cc1cc(N2CCOCC2)cc2[nH]c(-c3c(NC[C@@H](O)c4cccc(Cl)c4)cc[nH]c3=O)nc12 | > 5120 | > 5120 | > 5120 | – | > 5120 | > 5120 | > 5120 | > 5120 | 323 | 4340 | > 5120 | > 5120 | > 5120 | 956 | > 5120 | > 5120 | > 5120 | – | –
4 | Nc1ccccc1NC(=O)c1ccc(CNC(=O)OCc2cccnc2)cc1 [ENTINOSTAT] | > 5000 | 367 | 2050 | > 5000 | > 5000 | 777 | > 5000 | > 5000 | 578 | 783 | 61 | 1330 | 544 | 2680 | 618 | 887 | 432 | 1890 | –
5 | C[C@@H](Oc1cc(-c2cnn(C3CCNCC3)c2)cnc1N)c1c(Cl)ccc(F)c1Cl [CRIZOTINIB] | > 2000 | > 2000 | > 2000 | > 2000 | > 2000 | > 2000 | > 2000 | > 2000 | > 2000 | > 2000 | 357 | > 2000 | > 2000 | > 2000 | > 2000 | > 2000 | > 2000 | – | –
6 | C=CC(=O)N1CCCC(Nc2nc(Nc3ccc(N(C)C(=O)CC)cc3)nc3[nH]cnc23)C1 (configuration not stated) | > 10200 | > 10200 | > 10200 | – | > 10200 | > 10200 | > 10200 | > 10200 | > 10200 | 9060 | > 10200 | > 10200 | > 10200 | > 10200 | > 10200 | > 10200 | > 10200 | – | –
7 | Cc1ccc(NC(=O)c2ccc(CN3CCN(C)CC3)cc2)cc1Nc1nccc(-c2cccnc2)n1 [IMATINIB] | > 2000 | > 2000 | > 2000 | > 2000 | > 2000 | > 2000 | > 2000 | > 2000 | – | > 2000 | > 2000 | > 2000 | > 2000 | > 2000 | > 2000 | – | > 2000 | – | > 2000
8 | COc1ccc(N(C(=O)Oc2c(C)cccc2C)c2ccnc(Nc3ccc(N4CCN(C)CC4)cc3)n2)c(OC)c1 | > 5120 | > 5120 | > 5120 | – | > 5120 | 714 | > 5120 | > 5120 | > 5120 | > 5120 | > 5120 | > 5120 | 2630 | > 5120 | > 5120 | > 5120 | 4720 | – | –
